From publication PMC8286840, “Identifying SARS-CoV-2 antiviral compounds by screening for small molecule inhibitors of Nsp3 papain-like protease” (Biochemical Journal, 2021)
Counter-ions that a name gives are not always drawn. Like-named read-outs stand apart in the source and are kept apart here.

Legend:
[1] = target: T1, SARS-CoV-2 PLpro (nsp3 1564–1878) (Severe acute respiratory syndrome coronavirus 2, UniProt P0DTD1); experiment: biochemical; parameters: FRET-quenched peptide (Pro3) cleavage by PLpro, 10 min pre-incubation, slope over 20 min, normalised to no-compound control; conditions: low concentration screen, read-out: % of control remaining
[2] = target: T1, SARS-CoV-2 PLpro (nsp3 1564–1878); experiment: biochemical; parameters: FRET-quenched peptide (Pro3) cleavage by PLpro, 10 min pre-incubation, slope over 20 min, normalised to no-compound control; conditions: high concentration screen, read-out: % of control remaining

`COc1ccc2c(c1)c(CC(=O)O)c(C)n2Cc1ccc(Cl)cc1` [1-(4-Chlorobenzyl)-5-methoxy-2-methylindole-3-acetic acid] showed a remaining activity at 1.25 µM ([1]; Well no.=379) of 99.8% and a remaining activity at 3.75 µM ([2]; Well no.=379) of 99.4%.

`COc1ccc2c(c1)c(CC(=O)O)c(C)n2Cc1ccc(F)cc1` [1-(4-Fluorobenzyl)-5-methoxy-2-methylindole-3-acetic acid] was tested, and the remaining activity at 1.25 µM ([1]; Well no.=515) was 99.4% and the remaining activity at 3.75 µM ([2]; Well no.=515) was 99.5%.

Work on `Oc1ccc(Cn2cc[nH]c2=S)cc1` [1-(4-Hydroxybenzyl)imidazole-2-thiol] yielded a remaining activity at 1.25 µM ([1]; Well no.=516) of 104% and a remaining activity at 3.75 µM ([2]; Well no.=516) of 105%.

With `COc1ccc2cc(OCC3(C(=O)O)CN(C(=O)c4ccc(F)cc4)C3)ccc2c1` [1-(4-fluorobenzoyl)-3-(((6-methoxynaphthalen-2-yl)oxy)methyl)azetidine-3-carboxylic acid] the remaining activity at 1.25 µM ([1]; Well no.=5909) was 103% and the remaining activity at 3.75 µM ([2]; Well no.=5909) was 102%.

Compound `CC1CNCCN1S(=O)(=O)c1cccc2cnccc12` (stereo not shown) [1-(5-Isoquinolinylsulfonyl)-2-methylpiperazine dihydrochloride] has a remaining activity at 1.25 µM ([1]; Well no.=965) of 104% and a remaining activity at 3.75 µM ([2]; Well no.=965) of 103%.

For `CC1CN(S(=O)(=O)c2cccc3cnccc23)CCN1` (stereo not shown) [1-(5-Isoquinolinylsulfonyl)-3-methylpiperazine dihydrochloride], the remaining activity at 1.25 µM ([1]; Well no.=869) was 106% and the remaining activity at 3.75 µM ([2]; Well no.=869) was 104%.

Work on `NC(N)=NC(N)=Nc1cccc(Cl)c1` [1-(m-Chlorophenyl)-biguanide hydrochloride] yielded a remaining activity at 1.25 µM ([1]; Well no.=487) of 106% and a remaining activity at 3.75 µM ([2]; Well no.=487) of 103%.

With `CN1CCN(CCCCN2C(=O)CN(/N=C/c3ccc(-c4ccc(Cl)cc4)o3)C2=O)CC1` [1-({(E)-[5-(4-chlorophenyl)-2-furyl]methylidene}amino)-3-[4-(4-methyl-1-piperazinyl)butyl]-2,4-imidazolidinedione dihydrochloride] the remaining activity at 1.25 µM ([1]; Well no.=5603) was 97.6% and the remaining activity at 3.75 µM ([2]; Well no.=5603) was 101%.

Work on `C=CCn1c(=O)c2c(nc(-c3ccc(S(=O)(=O)O)cc3)n2C)n(C)c1=O` [1-Allyl-3,7-dimethyl-8-p-sulfophenylxanthine] yielded a remaining activity at 1.25 µM ([1]; Well no.=16) of 98.3% and a remaining activity at 3.75 µM ([2]; Well no.=16) of 89.6%.

With `NC1(C(=O)O)CCCCC1` [1-Amino-1-cyclohexanecarboxylic acid hydrochloride] the remaining activity at 1.25 µM ([1]; Well no.=160) was 100% and the remaining activity at 3.75 µM ([2]; Well no.=160) was 102%.

`Nn1nnc2ccccc21` [1-Aminobenzotriazole] was tested, and the remaining activity at 1.25 µM ([1]; Well no.=253) was 98.6% and the remaining activity at 3.75 µM ([2]; Well no.=253) was 99%.

In the case of `NC1(C(=O)O)CC1` [1-Aminocyclopropanecarboxylic acid hydrochloride], the remaining activity at 1.25 µM ([1]; Well no.=341) is reported as 100% and the remaining activity at 3.75 µM ([2]; Well no.=341) is reported as 102%.

`O=C1Cc2c([nH]c3ccc(Br)cc23)-c2ncccc2N1` [1-Azakenpaullone] was tested, and the remaining activity at 1.25 µM ([1]; Well no.=2335) was 96.4% and the remaining activity at 3.75 µM ([2]; Well no.=2335) was 97.1%.

In the case of `OC[C@H]1NC[C@H](O)[C@@H](O)[C@@H]1O` [1-Deoxynojirimycin hydrochloride], the remaining activity at 1.25 µM ([1]; Well no.=586) is reported as 102% and the remaining activity at 3.75 µM ([2]; Well no.=586) is reported as 102%.

For `CCCCCCCCCCCCCCCCOCC(CO)OC(C)=O` (stereo not shown) [1-Hexadecyl-2-O-acetyl-glycerol], the remaining activity at 1.25 µM ([1]; Well no.=4238) was 95.2% and the remaining activity at 3.75 µM ([2]; Well no.=4238) was 98.7%.

`CCCCCCCCCCCCCCCCOC[C@H](CO)OC` [1-Hexadecyl-2-O-methyl-glycerol] gave a remaining activity at 1.25 µM ([1]; Well no.=4572) of 97.5% and a remaining activity at 3.75 µM ([2]; Well no.=4572) of 99.2%.

`CCCCCCCCCCCCCCCCOCC(COP(=O)([O-])OCC[N+](C)(C)C)OC` (stereo not shown) [1-Hexadecyl-2-methylglycero-3 PC] showed a remaining activity at 1.25 µM ([1]; Well no.=4259) of 95.4% and a remaining activity at 3.75 µM ([2]; Well no.=4259) of 92%.

Compound `Cn1cnc2c(ncn2[C@@H]2O[C@H](CO)[C@@H](O)[C@H]2O)c1=N` [1-Methyladenosine] has a remaining activity at 1.25 µM ([1]; Well no.=7121) of 102% and a remaining activity at 3.75 µM ([2]; Well no.=7121) of 98.5%.

In the case of `Cn1cnc(CCN)c1` [1-Methylhistamine dihydrochloride], the remaining activity at 1.25 µM ([1]; Well no.=928) is reported as 101% and the remaining activity at 3.75 µM ([2]; Well no.=928) is reported as 103%.

In the case of `Cn1ccnc1` [1-Methylimidazole], the remaining activity at 1.25 µM ([1]; Well no.=939) is reported as 101% and the remaining activity at 3.75 µM ([2]; Well no.=939) is reported as 102%.

`Cn1cnc2c(ncn2[C@@H]2O[C@H](CO)[C@@H](O)[C@H]2O)c1=O` [1-Methylinosine] showed a remaining activity at 1.25 µM ([1]; Well no.=7167) of 103%, a remaining activity at 1.25 µM ([1]; Well no.=7858) of 102% and a remaining activity at 3.75 µM ([2]; Well no.=7167) of 101%.

`CC(C)(C)n1nc(-c2cccc3ccccc23)c2c(N)ncnc21` [1-Naphthyl PP1 - 1-(1,1-Dimethylethyl)-3-(1-naphthalenyl)-1H-pyrazolo[3,4-d]pyrimidin-4-amine] showed a remaining activity at 1.25 µM ([1]; Well no.=2674) of 98% and a remaining activity at 3.75 µM ([2]; Well no.=2674) of 98.4%.

Compound `CCCCCCCC/C=C\CCCCCCCC(=O)OC[C@H](CO)OC(C)=O` [1-Oleoyl-2-acetyl-glycerol] has a remaining activity at 1.25 µM ([1]; Well no.=4480) of 97.7% and a remaining activity at 3.75 µM ([2]; Well no.=4480) of 99.2%.

`S=C(Nc1ccccc1)Nc1nccs1` [1-Phenyl-3-(2-thiazolyl)-2-thiourea] was tested, and the remaining activity at 1.25 µM ([1]; Well no.=858) was 99.5% and the remaining activity at 3.75 µM ([2]; Well no.=858) was 96.6%.

Compound `NC(N)=NC(N)=Nc1ccccc1` [1-Phenylbiguanide] has a remaining activity at 1.25 µM ([1]; Well no.=1263) of 102% and a remaining activity at 3.75 µM ([2]; Well no.=1263) of 102%.

`CCCCC/C=C\C/C=C\C/C=C\C/C=C\CCCC(=O)O[C@@H](CO)COC(=O)CCCCCCCCCCCCCCCCC` [1-Stearoyl-2-arachidonoyl-glycerol] gave a remaining activity at 1.25 µM ([1]; Well no.=4482) of 95.9% and a remaining activity at 3.75 µM ([2]; Well no.=4482) of 96.2%.

In the case of `FC(F)(F)c1ccccc1-n1ccnc1` [1-[2-(Trifluoromethyl)phenyl]imidazole], the remaining activity at 1.25 µM ([1]; Well no.=1533) is reported as 89.9% and the remaining activity at 3.75 µM ([2]; Well no.=1533) is reported as 90.7%.

For `O=c1ccn([C@@H]2O[C@H](CO)[C@@H](O)[C@@H]2O)c(=O)[nH]1` [1-_beta-_D-_Arabinofuranosylurac_il], the remaining activity at 1.25 µM ([1]; Well no.=8887) was 95.2% and the remaining activity at 3.75 µM ([2]; Well no.=8887) was 94.3%.

In the case of `C=CC(=O)N1C/C(=C\c2ccc([N+](=O)[O-])cc2)C(=O)/C(=C/c2ccc([N+](=O)[O-])cc2)C1` [1-acryloyl-3,5-bis((E)-4-nitrobenzylidene)piperidin-4-one], the remaining activity at 1.25 µM ([1]; Well no.=6015) is reported as 103% and the remaining activity at 3.75 µM ([2]; Well no.=6015) is reported as 99.9%.

With `COc1ccc2c(c1)c(CC(=O)O)c(C)n2C(=O)c1ccccc1` [1-benzoyl-5-methoxy-2-methylindole-3-acetic acid] the remaining activity at 1.25 µM ([1]; Well no.=118) was 102% and the remaining activity at 3.75 µM ([2]; Well no.=118) was 104%.

In the case of `O=C(O)c1cn(C2CC2)c2cc(N3C[C@@H]4C[C@H]3CN4)c(F)cc2c1=O` [1-cyclopropyl-7-[(1S,4S)-2,5-diazabicyclo[2.2.1]hept-2-yl]-6-fluoro-4-oxo-1,4-dihydro-3-quinolinecarboxylic acid methanesulfonate hydrate], the remaining activity at 1.25 µM ([1]; Well no.=5598) is reported as 91.4% and the remaining activity at 3.75 µM ([2]; Well no.=5598) is reported as 86.5%.

`Nc1ncnc2c1ncn2[C@H]1CC[C@@H](CO)O1` [2',3'-Dideoxyadenosine] showed a remaining activity at 1.25 µM ([1]; Well no.=7998) of 97.5% and a remaining activity at 3.75 µM ([2]; Well no.=7998) of 94.3%.

`Cc1cn([C@H]2C=C[C@@H](CO)O2)c(=O)[nH]c1=O` [2',3'-didehydro-3'-deoxythymidine] was tested, and the remaining activity at 1.25 µM ([1]; Well no.=445) was 104% and the remaining activity at 3.75 µM ([2]; Well no.=445) was 105%.
